Assay results published in patent US10821106B2, “Composition and methods of use of novel phenylalanine small organic compounds to directly modulate PCSK9 protein activity” (SRX Cardio, LLC, priority 2015, dated 2020).

Columns and labels:
recombinant PCSK9 [1] = target: T1, recombinant PCSK9 (Homo sapiens, UniProt Q8NBP7); assay: LDLR Flow / FACS Assay in HuH7 cells; format: cell-based; details: 5.0 ug/mL PCSK9, 6 h, read-out: LDLR Flow Assay: % Inhibition of 5.0 ug/mL recombinant PCSK9 @ X compound dose; for inhibition at 1.25 µM: Huh-7, 1.25 uM compound
Protocol: The cells were incubated in 24-well plates for a total of 6 h in the absence or presence of recombinant PCSK9 protein (final concentration of 5.0 ug/ml), or in the presence of PCSK9 protein mixed with indicated concentration of experimental compound (Cmpd #). After 6 hours, the cells were released from the plate, stained with anti-LDLR antibody, then rinsed, counterstained with DAPI, and then measured by fluorescence activated cell sorting (FACS). The percent recombinant PCSK9 inhibition was calculated as [‘Compound Dose LDLR Fluorescence’-‘5.0 ug/ml PCSK9-treated LDLR Fluorescence’]/[‘No PCSK9 Basal LDLR Fluorescence’-‘5.0 ug/ml PCSK9-treated LDLR Fluorescence’]×100%.
LDLR levels can be measured using flow cytometry or fluorescence activated cell sorting (FACS) using protocols adapted from Benjannet et al., “Effects of the prosegment and pH on the activity of PCSK9: evidence for additional processing events” J Biol Chem. 285(52): 40965-40978 (2010) and “Composition and Methods of Use of Small Molecules as Binding Ligands for the Modulation of Proprotein Convertase Subtilisin/Kexin Type 9 (PCSK9) Protein Activity” (WO2016029037), which are incorporated by reference in their entirety.
Cells, such as HepG2, HuH7, FL83B, or a cell line transfected with a short-hairpin PCSK9 knockdown sequence such as HepG2/shPCSK9, HuH7/shPCSK9, or FL83B/shPCSK9 are plated and cultured at 37° C. for 12-24 h. Culture media is removed and replaced with fresh culture media or culture media plus a predetermined amount of recombinant PCSK9, for example a 10 nM final concentration of PCSK9. Cell culture media can be composed of DMEM (Invitrogen) with 10% fetal bovine serum (Life Technologies) supplemented with penicillin-streptomycin (Life Technologies). Cells are dosed with small molecule test compounds at doses ranging from 0 nM to 100 uM […]
Cells are analyzed for both cell viability marker (dead cells) and LDLR in live cells using a flow cytometer per the manufacturer's operating manual. […]

recombinant PCSK9 [2] = target: T1, recombinant PCSK9; assay: DiI-LDL Uptake Assay in HepG2 cells; format: cell-based; details: 2.5 ug/mL PCSK9, DiI-LDL 5 ug/ml, read-out: Uptake Assay: % Inhibition of 2.5 ug/mL recombinant PCSK9 @ X compound dose; for inhibition at 1.25 µM: 1.25 uM compound
Protocol: The cells were incubated in a 96-well plate for a total of 16 h in the absence or presence of recombinant PCSK9 (final concentration 2.5 ug/ml) protein alone or recombinant PCSK9 protein pre-mixed with indicated concentration of experimental compounds (Cmpd #). After 16 h, DiI-LDL (final concentration 5 ug/ml) was added to the incubation mixtures. After 4 h, cells are stained with Hoechst 33342 for 30 minutes, then rinsed with phosphate buffered saline, and then a final volume of 100 ul phosphate buffered saline was added to each well. The fluorescence was measured (DiI: excitation at 550 nm and emission at 590 nm; Hoechst: excitation at 355 nm, emission at 460 nm). The percent recombinant PCSK9 inhibition was calculated as [‘Compound Dose DiI Fluorescence’-‘2.5 ug/ml PCSK9-treated DiI Fluorescence’]/[‘No PCSK9 DiI Fluorescence’-‘2.5 ug/ml PCSK9-treated DiI Fluorescence’]×100%.
Cellular DiI-LDL uptake can be measured using protocols adapted from Benjannet et al., “Effects of the prosegment and pH on the activity of PCSK9: evidence for additional processing events” J Biol Chem. 285(52): 40965-40978 (2010) and “Composition and Methods of Use of Small Molecules as Binding Ligands for the Modulation of Proprotein Convertase Subtilisin/Kexin Type 9 (PCSK9) Protein Activity” (WO2016029037), which are incorporated by reference in their entirety.
Cells, such as HepG2, HuH7, FL83B, or a cell line transfected with a short-hairpin PCSK9 knockdown sequence such as HepG2/shPCSK9, HuH7/shPCSK9, or FL83B/shPCSK9 are plated and cultured at 37° C. for 12-24 h. Culture media is removed and replaced with fresh lipoprotein-depleted culture media supplemented with 5 ug/mL of DiI-LDL (Kalen Biomedical) or lipoprotein-depleted culture media supplemented with 5 ug/mL of DiI-LDL plus a predetermined concentration of recombinant PCSK9, for example a 10 nM final concentration of PCSK9. Lipoprotein-depleted culture media can be composed of DMEM (Invitrogen) with 10% lipoprotein-depleted fetal bovine serum (Kalen Biomedical) and supplemented with penicillin-streptomycin (Life Technologies). Cells are dosed with small molecule test compounds at doses ranging from 0 nM to 100 uM.
Following an incubation period of specified length, such as 6 hours, Hoechst 33342 (AnaSpec) stain is added to the cell media per manufacturer's instructions and incubated for a specified length (e.g., 30 minutes). The lipoprotein-depleted media is removed and cells rinsed three times with phosphate buffered saline. A final volume of phosphate buffered saline is added back to the wells. The DiI fluorescence is measured with a plate reader using an exciting wavelength of 550 nm and the resulting emission at 590 nm is measured. The Hoechst stain fluorescence is measured with a plate reader using an exciting wavelength of 355 nm and the resulting emission at 460 nm is measured.
Cells are analyzed by for both Hoechst stain (DNA content) and DiI-LDL fluorescence. Cells incubated with small molecule compounds that are inhibitors of PCSK9 will be expected to show increased amounts of DiI-LDL fluorescence, relative to control (no compound) specimens, and cells incubated with small molecule compounds that are activators of PCSK9 will be expected to show decreased amounts of DiI-LDL fluorescence relative to control (no compound) specimens.

T1 sequence (Q8NBP7 153-692): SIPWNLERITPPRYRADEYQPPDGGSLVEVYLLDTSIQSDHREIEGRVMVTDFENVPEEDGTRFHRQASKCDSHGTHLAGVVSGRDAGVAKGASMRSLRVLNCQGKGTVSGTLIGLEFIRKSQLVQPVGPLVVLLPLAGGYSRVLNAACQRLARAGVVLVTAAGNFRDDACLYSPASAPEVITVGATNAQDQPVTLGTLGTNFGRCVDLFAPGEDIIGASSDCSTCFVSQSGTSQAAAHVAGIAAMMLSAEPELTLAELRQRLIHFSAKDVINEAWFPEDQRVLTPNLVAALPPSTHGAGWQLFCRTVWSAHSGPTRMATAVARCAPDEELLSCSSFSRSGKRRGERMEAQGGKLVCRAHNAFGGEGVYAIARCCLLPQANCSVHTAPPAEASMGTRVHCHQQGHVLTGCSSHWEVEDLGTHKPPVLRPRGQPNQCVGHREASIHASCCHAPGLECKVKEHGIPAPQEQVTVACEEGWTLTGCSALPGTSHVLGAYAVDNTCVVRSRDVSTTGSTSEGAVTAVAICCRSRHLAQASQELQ

inhibition at 1.25 µM (recombinant PCSK9 [1]) [%]	inhibition at 10 µM (recombinant PCSK9 [1]; Huh-7, 10 uM compound) [%]	inhibition at 1.25 µM (recombinant PCSK9 [2]) [%]	inhibition at 10 µM (recombinant PCSK9 [2]; 10 uM compound) [%]	Structure (SMILES)
~15	~55	~15	> 100	CC(C)NC(=O)[C@@H](N)Cc1ccc(-c2ccccc2)cc1 [Compound 1, (S)-3-([1,1′-biphenyl]-4-yl)-2-amino-N-isopropylpropanamide]
		~40		CC(C)NC(=O)[C@@H](N)Cc1ccc(-c2cc[nH]c(=O)c2)cc1 [Compound 2, (S)-2-amino-N-isopropyl-3-(4-(2-oxo-1,2-dihydropyridin-4-yl)phenyl)propanamide]
		~44		CC(C)NC(=O)[C@@H](N)Cc1ccc(-c2cccc(O)c2)cc1 [Compound 3, (S)-2-amino-3-(3′-hydroxy-[1,1′-biphenyl]-4-yl)-N-isopropylpropanamide]
~10		~28		Cc1cc(C[C@H](N)C(=O)NC(C)C)ccc1-c1cccc(O)c1 [Compound 4, (S)-2-amino-3-(3′-hydroxy-2-methyl-[1,1′-biphenyl]-4-yl)-N-isopropylpropanamide]
